In patent US7572765B2, “Conformationally constrained parathyroid hormone (PTH) analogs” (The General Hospital Corporation, priority 2001, dated 2009):
Square brackets hold non-standard residues; d marks the D form. Peptide text beside a SMILES is read from it. hArg = N=C(N)NCCCC[C@H](N)C(=O)O; Aib = CC(C)(N)C(=O)O

Biological target: T1, P1R-delNt, truncated human P1R deleted for residues (24-181) (Homo sapiens, UniProt Q03431)
T1 construct: expressed in transfected cells; host or cells: COS-7 (transient, FuGENE 6)
T1 sequence (Q03431 with tags, fused parts or gaps limits assumed): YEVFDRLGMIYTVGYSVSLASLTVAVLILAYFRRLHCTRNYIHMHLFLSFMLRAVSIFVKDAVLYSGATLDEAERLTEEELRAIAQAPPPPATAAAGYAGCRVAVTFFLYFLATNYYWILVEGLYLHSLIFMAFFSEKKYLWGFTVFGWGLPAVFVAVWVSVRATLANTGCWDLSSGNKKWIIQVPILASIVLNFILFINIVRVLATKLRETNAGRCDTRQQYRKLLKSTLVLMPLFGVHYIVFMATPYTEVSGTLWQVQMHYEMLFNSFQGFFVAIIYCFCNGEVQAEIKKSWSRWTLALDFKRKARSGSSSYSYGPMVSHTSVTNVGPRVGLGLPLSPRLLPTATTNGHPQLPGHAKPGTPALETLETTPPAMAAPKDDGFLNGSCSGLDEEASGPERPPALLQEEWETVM
Test: Stimulation of inositol phosphate production (PLC) in COS-7 cells expressing hP1R-delNt
Type: cell-based
Details: for increase in inositol phosphate (IP) production relative to the basal level: P1R-delNt
Experimental: Cell Culture. The cell line HKRK-B28 (Takasu, H., et al., J. Bone Miner. Res. 14:11-20 (1999)) was derived from the porcine kidney cell line, LLC-PK1 by stable transfection with plasmid DNA encoding the human P1R and expresses ˜280,000 receptors per cell. These cells, as well as COS-7 cells and SaOS-2-B10 cells, were cultured at […] in T-75 flasks ([…]) in Dulbecco's modified Eagle's medium (DMEM) supplemented with fetal bovine serum (10%), penicillin G (20 units/ml), streptomycin sulfate (20 μg/ml) and amphotericin B (0.05 μg/ml) in a humidified atmosphere containing 5% CO2. Stock solutions of EGTA/trypsin and antibiotics were from GIBCO; fetal bovine serum was from Hyclone Laboratories (Logan, Utah). COS-7 cells sub-cultured in 24-well plates were transfected with plasmid DNA (200 ng per well) encoding the wild-type human P1R or truncated human P1R deleted for residues (24-181) (Shimizu, M., et al., J. Biol. Chem. 275:21836-21843 (2000)) that was purified by cesium chloride/ethidium bromide density gradient centrifugation, and FuGENE 6 transfection reagent (Roche Indianapolis Ind.) according to the manufacturer's recommended procedure. All cells, in 24-well plates, were treated with fresh media and shifted to 33° C. for 12 to 24 h prior to assay.
Stimulation of Inositol Phosphate Production. COS-7 cells transfected as above with P1R-WT were treated with serum-free, inositol-free DMEM containing 0.1% bovine serum albumin and [^3H]myo-inositol (NEN, Boston, Mass.) (2 μCi/mL) for 16 h prior to assay. At the time of the assay, the cells were rinsed with binding buffer containing LiCl (30 mM) and treated with the same buffer with or without a PTH analog. The cells were then incubated at 37° C. for 40 min, after which the buffer was removed and replaced by 0.5 mL of ice cold 5% trichloroacetic acid solution. After 3 h on ice, the lysate was collected and extracted twice with ethyl ether. The lysate was then applied to an ion exchange column (0.5 mL resin bed) and the total inositol phosphates were eluted as described previously (Berridge, M. J., et al., Biochem. J. 212:473-482 (1983)), and counted in liquid scintillation cocktail.
Thus, the truncated receptor can couple to the PCL signaling pathway when stimulated with the Aib-containing PTH peptide. […] Thus, the Aib-1,3 substitutions enhance the ligand's capacity to stimulate PLC activity with P1R-WT, as well as with P1R-delNt.

SMILES: CCCC[C@H](NC(=O)[C@H](CCCNC(=N)N)NC(=O)[C@H](CCC(=O)O)NC(=O)[C@@H](NC(=O)[C@H](CO)NC(=O)[C@H](C)NC(=O)[C@H](CC(C)C)NC(=O)[C@H](Cc1c[nH]cn1)NC(=O)[C@H](CCCCN)NC(=O)CNC(=O)[C@H](CC(C)C)NC(=O)[C@H](CC(N)=O)NC(=O)[C@H](Cc1c[nH]cn1)NC(=O)[C@H](CCCC)NC(=O)[C@H](CC(C)C)NC(=O)[C@H](CCC(N)=O)NC(=O)[C@@H](NC(=O)[C@H](CCC(=O)O)NC(=O)[C@H](CO)NC(=O)[C@@H](NC(=O)[C@H](C)N)C(C)C)[C@@H](C)CC)C(C)C)C(=O)N[C@@H](CCC(N)=O)C(=O)N[C@@H](Cc1c[nH]c2ccccc12)C(=O)N[C@@H](CC(C)C)C(=O)N[C@@H](CCCNC(=N)N)C(=O)N[C@@H](CCCCN)C(=O)N[C@@H](CCCCN)C(=O)N[C@@H](CC(C)C)C(=O)N[C@@H](CCC(N)=O)C(=O)N[C@@H](CC(=O)O)C(=O)N[C@H](C(=O)N[C@@H](Cc1c[nH]cn1)C(=O)N[C@@H](CC(N)=O)C(=O)N[C@@H](Cc1ccc(O)cc1)C(N)=O)C(C)C [PTH(1-34), [Nle^8,21, Tyr^34]PTH(1-34)amide, reference compound]
- increase in inositol phosphate (IP) production relative to the basal level: inactive

SMILES: CC[C@H](C)[C@H](NC(=O)[C@H](CCC(=O)O)NC(=O)C(C)(C)NC(=O)[C@@H](NC(=O)C(C)(C)N)C(C)C)C(=O)N[C@@H](CCC(N)=O)C(=O)N[C@@H](CC(C)C)C(=O)N[C@@H](CCSC)C(=O)N[C@@H](Cc1c[nH]cn1)C(=O)N[C@@H](CCC(N)=O)C(=O)N[C@@H](CCCCNC(=N)N)C(=O)N[C@@H](C)C(=O)N[C@@H](CCCCN)C(=O)N[C@@H](Cc1c[nH]c2ccccc12)C(N)=O [[Aib^1,3,M]PTH(1-14), AibValAibGluIleGlnLeuMetHisGlnHarAlaLysTrp] (H-[Aib]V[Aib]EIQLMHQ[hArg]AKW-NH2)
- increase in inositol phosphate (IP) production relative to the basal level: ~3 fold
- PLC EMAX(obs.) (hP1R-delNT): 3.1 ± 0.2 foldxbasal
- EC50 (hP1R-delNT, dash = no PLC response observed): 130 ± 30 nM

SMILES: CC[C@H](C)[C@H](NC(=O)[C@H](CCC(=O)O)NC(=O)[C@H](C)NC(=O)[C@@H](NC(=O)[C@H](C)N)C(C)C)C(=O)N[C@@H](CCC(N)=O)C(=O)N[C@@H](CC(C)C)C(=O)N[C@@H](CCSC)C(=O)N[C@@H](Cc1c[nH]cn1)C(=O)N[C@@H](CCC(N)=O)C(=O)N[C@@H](CCCCNC(=N)N)C(=O)N[C@@H](C)C(=O)N[C@@H](CCCCN)C(=O)N[C@@H](Cc1c[nH]c2ccccc12)C(N)=O [[M]PTH(1-14), [Ala^3,12,Gln^10,Har^11,Trp^14]PTH(1-14)amide, reference compound] (H-AVAEIQLMHQ[hArg]AKW-NH2)
- increase in inositol phosphate (IP) production relative to the basal level: inactive
